Here are results for 13 compounds from patent US8877747B2, “Indenone derivative and pharmaceutical composition comprising same” (Korea Research Institute of Chemical Technology, priority 2009, dated 2014).

Structures can show the parent of a compound that is named as a salt.

The first test concerns MC3T3-E1 cells. Put plainly: ALP activity, differentiation of osteoblast cells. It is filed as cell-based. To be noted: Mus musculus, MC3T3-E1, 144 h; MC3T3E1 cells treated with 10 μM compound and OF; relates activity to OF-only group (100%); higher = more efficacious. The method in brief:
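MC3T3-E1 cells were cultured 6 days at 37 °C in osteogenic medium (ascorbic acid, β-glycerophosphate) with compound at 0.1, 1 and 10 μM; medium and compound were renewed every 2-3 days. Freeze-thaw lysates were protein-normalised and ALP activity was read with 4-nitrophenylphosphate; DMSO and OF-only groups served as comparators.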
In the case of `O=C1C(c2cccnc2)=C(c2ccccc2)c2ccc(OCCN3CCOCC3)cc21` [Example 1, 6-(2-morpholinoethoxy)-3-phenyl-2-(pyridin-3-yl)-1H-inden-1-one hydrochloride salt], the activity at 10 µM is 455%.

For the compound `CS(=O)(=O)N1CCN(CCOc2ccc3c(c2)C(=O)C(c2ccc(F)c(F)c2)=C3c2ccc(Cl)cc2)CC1` [Example 53, 3-(4-chlorophenyl)-2-(3,4-difluorophenyl)-6-(2-(4-(methylsulfonyl)piperazin-1-yl)ethoxy)-1H-inden-1-one hydrochloride salt], the activity at 10 µM turned out to be 27%.

In the case of `COc1ccc(C2=C(c3ccccc3)c3ccc(OCCN4CCOCC4)cc3C2=O)cc1` [Example 22, 6-(2-morpholinoethoxy)-2-(4-methoxyphenyl)-3-phenyl-1H-inden-1-one], the activity at 10 µM was 169%.

As for `CC(C)(C)OC(=O)N1CCN(CCOc2ccc3c(c2)C(=O)C(c2cccnc2)=C3c2ccccc2)CC1` [Example 44, tert-butyl 4-(2-(1-oxo-3-phenyl-2-(pyridin-3-yl)-1H-inden-6-yloxy)ethyl)piperazine-1-carboxylate], the activity at 10 µM turned out to be 710%.

As to `CS(=O)(=O)N1CCN(CCOc2ccc3c(c2)C(=O)C(c2cccnc2)=C3c2ccccc2)CC1` [Example 45, 6-[2-(4-(methylsulfonyl)piperazin-1-yl)ethoxy]-3-phenyl-2-(pyridin-3-yl)-1H-inden-1-one hydrochloride salt], the activity at 10 µM is 192%.

Consider `O=C1C(c2cnc3ccccc3c2)=C(c2ccc(F)cc2F)c2ccc(OCCN3CCS(=O)(=O)CC3)cc21` [Example 115, 3-(2,4-difluorophenyl)-6-[2-(1,1-dioxothiomorpholin-4-yl)ethoxy]-2-(quinolin-3-yl)-1H-inden-1-one], for which the activity at 10 µM was 199%.

Turning to `CC(C)(C)OC(=O)N1CCN(CCCOc2ccc3c(c2)C(=O)C(c2cccnc2)=C3c2cc(F)cc(F)c2)CC1` [Example 64, tert-butyl 4-(3-(3-(3,5-difluorophenyl)-1-oxo-2-(pyridin-3-yl)-1H-inden-6-yloxy)propyl)piperazine-1-carboxylate], the activity at 10 µM amounted to 34%.

Take `CS(=O)(=O)N1CCN(CCOc2ccc3c(c2)C(=O)C(c2cccnc2)=C3c2cc(F)cc(F)c2)CC1` [Example 59, 3-(3,5-difluorophenyl)-6-(2-(4-(methylsulfonyl)piperazin-1-yl)ethoxy)-2-(pyridin-3-yl)-1H-inden-1-one hydrochloride salt]: the activity at 10 µM came out at 254%.

Regarding `O=C1C(c2cccnc2)=C(c2ccccc2F)c2ccc(OCCN3CCOCC3)cc21` [Example 80, 6-(2-morpholinoethoxy)-3-(2-fluorophenyl)-2-(pyridin-3-yl)-1H-inden-1-one], the activity at 10 µM is 74%.

On to `O=C1C(c2cccnc2)=C(c2ccc(F)cc2)c2ccc(OCCN3CCOCC3)cc21` [Example 24, 6-(2-morpholinoethoxy)-3-(4-fluorophenyl)-2-(pyridin-3-yl)-1H-inden-1-one], for which the activity at 10 µM is 121%.

Take `O=C1C(c2ccc(F)c(F)c2)=C(c2ccccc2)c2ccc(OCCN3CCOCC3)cc21` [Example 18, 6-(2-morpholinoethoxy)-2-(3,4-difluorophenyl)-3-phenyl-1H-inden-1-one]: the activity at 10 µM was found to be 349%.

As for `O=C1C(c2ccccn2)=C(c2ccccc2)c2ccc(OCCN3CCOCC3)cc21` [Example 83, 6-(2-morpholinoethoxy)-3-phenyl-2-(pyridin-2-yl)-1H-inden-1-one], the activity at 10 µM was determined as 18%.

With `CS(=O)(=O)N1CCN(CCOc2ccc3c(c2)C(=O)C(c2cnc4ccccc4c2)=C3c2ccc(F)cc2F)CC1` [Example 119, 3-(2,4-difluorophenyl)-6-{2-[4-(methylsulfonyl)piperazin-1-yl]ethoxy}-2-(quinolin-3-yl)-1H-inden-1-one], the activity at 10 µM turned out to be 170%.

In a further test the test system is ovariectomized female DDY mice. The test can be described thus: Bone density after ovariectomy, in-vivo micro-CT. The settings on record: oral once a day for 4 weeks. Also on record: species or system mouse. The text has this:
(§1) Most pharmacological effectiveness of therapeutic agents for osteoporosis has been evaluated using an animal, rather than a human. Particularly, as a model animal for osteoporosis occurring after menopause, ovariectomized female rats have been used for its similarity to women after menopause. To examine the effects of the indenone derivatives on the bone resorption, female SD rats and female DDY mice were subjected to ovariectomy. After the rats or mice were anesthetized by abdominally injecting 25 mg/kg of sodium pentobarbital (Choongwae pharma coporation), the fur of the abdominal region was shaved and the operation area was sterilized. About 1.5 cm of abdominal skin, abdominal muscle, and peritoneum were cut in the middle under aseptic condition, and ovary was exposed, followed by removal of both left and right ovaries after ligaturing of oviducts using silk threads. Then, peritoneum, abdominal muscle and skin were sutured with silk threads. The Sham group, animals operated upon for the surgery as in the ovariectomized rats except for removing ovary, was employed to compare the effects. […]
Regarding `O=C1C(c2cccnc2)=C(c2ccccc2)c2ccc(OCCN3CCOCC3)cc21` [Example 1, 6-(2-morpholinoethoxy)-3-phenyl-2-(pyridin-3-yl)-1H-inden-1-one hydrochloride salt], the “Bone density (FIG. 3A)” value was “significantly increased”.

The next test relates to ovariectomized female SD rats. Put plainly: Bone density after ovariectomy, in-vivo micro-CT. Also on record: species or system rat. The settings on record: oral once a day for 4 weeks.
From the text: as §1
With `O=C1C(c2cccnc2)=C(c2ccccc2)c2ccc(OCCN3CCOCC3)cc21` [Example 1, 6-(2-morpholinoethoxy)-3-phenyl-2-(pyridin-3-yl)-1H-inden-1-one hydrochloride salt], the “Bone density (FIG. 3B)” value is “significantly increased”.
